Test results as given in patent US20180072997A1, “INHIBITORS OF HUMAN IMMUNODEFICIENCY VIRUS REPLICATION” (ViiV HEATHCARE UK (NO.5) LIMITED, priority 2015, published 2018).

Assays:
[1] = system: recombinant NL4-3 virus (Renilla luciferase in nef) in MT-2 cells; assay: whole plant or invertebrate; format: cell-based, HIV; details: luciferase activity
Procedure: HIV cell culture assay—MT-2 cells, 293T cells and the proviral DNA clone of NL4-3 virus were obtained from the NIH AIDS Research and Reference Reagent Program. MT-2 cells were propagated in RPMI 1640 media supplemented with 10% heat inactivated fetal bovine serum (FBS), 100 μg/ml penicillin G and up to 100 units/mL streptomycin. The 293T cells were propagated in DMEM media supplemented with 10% heat inactivated FBS, 100 μg/mL penicillin G and 100 μg/mL streptomycin. A recombinant NL4-3 proviral clone, in which a section of the nef gene was replaced with the Renilla luciferase gene, was used to make the reference virus used in these studies. The recombinant virus was prepared through transfection of the recombinant NL4-3 proviral clone into 293T cells using Transit-293 Transfection Reagent from Mirus Bio LLC (Madison, Wis.). Supernatent was harvested after 2-3 days and the amount of virus present was titered in MT-2 cells using luciferase enzyme activity as a marker by measuring luciferase enzyme activity. Luciferase was quantitated using the EnduRen Live Cell Substrate from Promega (Madison, Wis.). Antiviral activities of compounds toward the recombinant virus were quantified by measuring luciferase activity in MT-2 cells infected for 4-5 days with the recombinant virus in the presence of serial dilutions of the compound.
(Johnson V A, Byington R T. Infectivity Assay. In Techniques in HIV Research. ed. Aldovini A, Walker BD. 71-76. New York: Stockton Press.1990).

[2] = Compound cytotoxicity, XTT-based colorimetric assay; format: cell-based; details: human, uninfected MT2 cells, day 4, XTT
Procedure: Compound cytotoxicity and the corresponding CC50 values were determined using the same protocol as described in the antiviral assay except that uninfected cells were used. Cytotoxicity was assessed on day 4 in uninfected MT2 cells by using a XTT (2,3-bis[2-Methoxy-4-nitro-5-sulfophenyl]-2H-tetrazolium-5-carboxyanilide inner salt)-based colorimetric assay (Sigma-Aldrich, St Louis, Mo.).

[3] = Renilla, NL43, MT-2 cells infected for 4-5 days with recombinant NL4-3 Renilla luciferase virus
[4] = MT-2 cells infected for 4-5 days with recombinant NL4-3 Renilla luciferase virus

Row | Compound | EC50 [1, 3] [nM] | CC50 at 4 days [2] [µM] | EC50 [1, 4] [nM]
1 | CN(C(=O)[C@H](Cc1cc(F)cc(F)c1)NC(=O)NS(=O)(=O)N[C@@H](Cc1cc(F)cc(F)c1)C(=O)N(C)c1ccc(C(C)(C)C)cc1)c1ccc(C(C)(C)C)cc1 [Example 168] | 150 | 16.2 | –
2 | COc1ccc(N(C)C(=O)[C@H](Cc2cc(F)cc(F)c2)NC(=O)Cn2c(=O)c(=O)n(CC(=O)N[C@@H](Cc3cc(F)cc(F)c3)C(=O)N(C)c3ccc(OC)cc3)c3ccccc32)cc1 [Example 98] | 30 | 11.2 | –
3 | COc1ccc(N(C)C(=O)[C@H](Cc2ccccc2)NC(=O)CCC(=O)N[C@@H](Cc2ccccc2)C(=O)N(C)c2ccc(OC)cc2)cc1 [Example 21] | 3250 | 27 | –
4 | CN(C(=O)[C@H](Cc1ccccc1)NC(=O)c1cccc(C(=O)N[C@@H](Cc2ccccc2)C(=O)N(C)c2ccc3scnc3c2)c1)c1ccc2scnc2c1 [Example 50] | 40 | 3.7 | –
5 | C=CCCN(C(=O)[C@H](Cc1cc(F)cc(F)c1)NS(=O)(=O)NC(=O)N[C@@H](Cc1cc(F)cc(F)c1)C(=O)N(CC=C)c1ccc(OC)cc1)c1ccc(OC)cc1 [Example 123] | 380 | 19.2 | –
6 | COc1ccc(N(C)C(=O)[C@H](Cc2cc(F)cc(F)c2)Nc2ncc(-c3cnc(N[C@@H](Cc4cc(F)cc(F)c4)C(=O)N(C)c4ccc(OC)cc4)nc3)cn2)cc1 [Example 88] | 13700 | 20.8 | –
7 | CN(C(=O)[C@H](Cc1cc(F)cc(F)c1)NC(=O)/C=C\C(=O)N[C@@H](Cc1cc(F)cc(F)c1)C(=O)N(C)c1ccc2scnc2c1)c1ccc2scnc2c1 [Example 128] | 80 | 12.6 | –
8 | COc1ccc(N(C)C(=O)[C@H](Cc2ccccc2)NC(=O)Cn2c(=O)n(CC(=O)N[C@@H](Cc3ccccc3)C(=O)N(C)c3ccc(OC)cc3)c3c(Cl)cccc32)cc1 [Example 73] | 70 | 39.9 | –
9 | Cc1ncc(N(C)C(=O)[C@H](Cc2cc(F)cc(F)c2)NC(=O)NS(=O)(=O)N[C@@H](Cc2cc(F)cc(F)c2)C(=O)N(C)c2cnc(C)c(Cl)c2)cc1Cl [Example 225] | 870 | 2.3 | –
10 | CN(C(=O)[C@H](Cc1cc(F)cc(F)c1)NC(=O)NS(=O)(=O)N[C@@H](Cc1cc(F)cc(F)c1)C(=O)N(C)c1ccc(=O)n(C)c1)c1ccc(=O)n(C)c1 [Example 174] | 100000 | ≥ 100 | –
11 | COc1ccc(N(C)C(=O)[C@H](Cc2ccccc2)NC(=O)C=C(C)CC(=O)N[C@@H](Cc2ccccc2)C(=O)N(C)c2ccc(OC)cc2)cc1 (single isomer, unassigned) [Example 113] | – | 25.3 | 360
12 | COc1ccc(N(C)C(=O)[C@H](Cc2cc(F)cc(F)c2)NC(=O)Cn2c(=O)n(CC(=O)N[C@@H](Cc3cc(F)cc(F)c3)C(=O)N(C)c3ccc(OC)cc3)c3cc(Cl)ccc32)cc1 [Example 72] | 40 | 4.4 | –
13 | COc1ccc(N(C)C(=O)[C@H](Cc2ccccc2)NC(=O)OCCOC(=O)N[C@@H](Cc2ccccc2)C(=O)N(C)c2ccc(OC)cc2)cc1 [Example 56] | 2600 | 10.5 | –
14 | C=CCN(C(=O)[C@H](Cc1cc(F)cc(F)c1)NC(=O)NS(=O)(=O)N[C@@H](Cc1cc(F)cc(F)c1)C(=O)N(CC=C)c1ccc(OC)cc1)c1ccc(OC)cc1 [Example 120] | 260 | 23.3 | –
15 | COc1ccc(N(C)C(=O)[C@H](Cc2ccccc2)NC(=O)c2cncc(C(=O)N[C@@H](Cc3ccccc3)C(=O)N(C)c3ccc(OC)cc3)n2)cc1 [Example 111] | 960 | ≥ 100 | –
16 | CN(C(=O)[C@H](Cc1cc(F)cc(F)c1)NC(=O)CN1c2ccccc2N(CC(=O)N[C@@H](Cc2cc(F)cc(F)c2)C(=O)N(C)c2ccc3snnc3c2)S1(=O)=O)c1ccc2snnc2c1 [Example 178] | 20 | ≥ 100 | –
17 | Cc1cc(N(C)C(=O)[C@H](Cc2ccccc2)NC(=O)NS(=O)(=O)N[C@@H](Cc2ccccc2)C(=O)N(C)c2ccc(C#N)c(C)c2)ccc1C#N [Example 228] | 2740 | 93.5 | –
18 | COc1ccc(N(C)C(=O)[C@H](Cc2ccccc2)NC(=O)Cn2c(=O)n(CC(=O)N[C@@H](Cc3ccccc3)C(=O)N(C)c3ccc(OC)cc3)c3cc(NC(C)=O)ccc32)cc1 [Example 97] | 2600 | ≥ 100 | –
19 | COc1ccc(N(C)C(=O)[C@H](Cc2ccccc2)NC(=O)c2ccc(C(=O)N[C@@H](Cc3ccccc3)C(=O)N(C)c3ccc(OC)cc3)s2)cc1 [Example 58] | 610 | 3.3 | –

Row | Compound | EC50 [1, 3] [nM] | CC50 at 4 days [2] [µM] | EC50 [1, 4] [nM]
20 | CCN(C(=O)[C@H](Cc1cc(F)cc(F)c1)NC(=O)CN1c2ccccc2N(CC(=O)N[C@@H](Cc2cc(F)cc(F)c2)C(=O)N(CC)c2ccc(OC(F)F)cc2)S1(=O)=O)c1ccc(OC(F)F)cc1 [Example 147] | 90 | ≥ 100 | –
21 | COc1ccc(N(C)C(=O)[C@H](Cc2cc(F)cc(F)c2)NC(=O)NS(=O)(=O)N[C@@H](Cc2ccccc2)C(=O)N(C)c2ccc(OC)cc2)cc1 [Example 45] | 10 | 38.8 | –
22 | COc1ccc(N(C)C(=O)[C@H](Cc2ccccc2)NC(=O)COc2nc3ccccc3n(CC(=O)N[C@@H](Cc3ccccc3)C(=O)N(C)c3ccc(OC)cc3)c2=O)cc1 [Example 95] | 210 | ≥ 50 | –
23 | COc1ccc(N(C)C(=O)[C@H](Cc2cc(F)cc(F)c2)NC(=O)CN2c3ccccc3N(CC(=O)N[C@@H](Cc3cc(F)cc(F)c3)C(=O)N(C)c3ccc(OC)c(F)c3)S2(=O)=O)cc1F [Example 231] | 40 | ≥ 100 | –
24 | C=CCN(C(=O)[C@H](Cc1cc(F)cc(F)c1)NC(=O)c1cc(F)c(F)cc1C(=O)N[C@@H](Cc1cc(F)cc(F)c1)C(=O)N(CC=C)c1ccc(OC)cc1)c1ccc(OC)cc1 [Example 192] | 7240 | 58.2 | –
25 | Cc1ccc(N(C)C(=O)[C@H](Cc2ccccc2)NC(=O)NS(=O)(=O)N[C@@H](Cc2ccccc2)C(=O)N(C)c2ccc(C)c(Cl)c2)cc1Cl [Example 220] | 3800 | 16.7 | –
26 | COc1ccc(N(C)C(=O)[C@H](Cc2ccccc2)NC(=O)c2cc(Br)cc(C(=O)N[C@@H](Cc3ccccc3)C(=O)N(C)c3ccc(OC)cc3)c2)cc1 [Example 110] | 210 | ≥ 100 | –
27 | COc1ccc(N(C)C(=O)[C@H](Cc2ccccc2)NC(=O)c2cc(C)cc(C(=O)N[C@@H](Cc3ccccc3)C(=O)N(C)c3ccc(OC)cc3)c2)cc1 [Example 102] | 50 | ≥ 33.3 | –
28 | CN(C(=O)[C@H](Cc1cc(F)cc(F)c1)NC(=O)NS(=O)(=O)N[C@@H](Cc1cc(F)cc(F)c1)C(=O)N(C)c1ccc(F)c(F)c1)c1ccc(F)c(F)c1 [Example 215] | 310 | 34.5 | –
29 | CCCc1ccc(N(C)C(=O)[C@H](Cc2cc(F)cc(F)c2)NC(=O)NS(=O)(=O)N[C@@H](Cc2cc(F)cc(F)c2)C(=O)N(C)c2ccc(CCC)cc2)cc1 [Example 182B] | 20 | 13.4 | –
30 | C=CCCN(C(=O)[C@H](Cc1cc(F)cc(F)c1)NC(=O)NS(=O)(=O)N[C@@H](Cc1cc(F)cc(F)c1)C(=O)N(CCC=C)c1ccc2scnc2c1)c1ccc2scnc2c1 (single isomer, unassigned) [Example 141] | – | 16.2 | 90
31 | C=CCN(C(=O)[C@H](Cc1cc(F)cc(F)c1)NC(=O)c1ccccc1C(=O)N[C@@H](Cc1cc(F)cc(F)c1)C(=O)N(CC=C)c1ccc(OC)cc1)c1ccc(OC)cc1 [Example 191] | 1790 | ≥ 100 | –
32 | COc1ccc(N(C)C(=O)[C@H](Cc2ccccc2)NC(=O)C[C@H](O)C(=O)N[C@@H](Cc2ccccc2)C(=O)N(C)c2ccc(OC)cc2)cc1 [Example 32] | 3290 | 34.6 | –
33 | COc1ccc(N(C)C(=O)[C@H](Cc2ccccc2)NC(=O)c2cc(C(=O)N[C@@H](Cc3ccccc3)C(=O)N(C)c3ccc(OC)cc3)n(C)n2)cc1 [Example 115] | 2130 | ≥ 100 | –
34 | COc1ccc(N(C)C(=O)[C@H](Cc2ccccc2)NC(=O)CNC(=O)NCC(=O)N[C@@H](Cc2ccccc2)C(=O)N(C)c2ccc(OC)cc2)cc1 [Example 68] | 1420 | 69.3 | –
35 | COc1ccc(N(C)C(=O)[C@H](Cc2ccccc2)NC(=O)c2cc(C(=O)N[C@@H](Cc3ccccc3)C(=O)N(C)c3ccc(OC)cc3)on2)cc1 [Example 116] | 710 | 1.5 | –
36 | COc1ccc(NC(=O)[C@H](Cc2ccccc2)NS(=O)(=O)NC(=O)N[C@@H](Cc2ccccc2)C(=O)N(C)c2ccc(OC)cc2)cc1 [Example 12] | 12400 | 29 | –
37 | CN(C(=O)[C@H](Cc1cc(F)cc(F)c1)NC(=O)Cn1c(=O)n(CC(=O)N[C@@H](Cc2cc(F)cc(F)c2)C(=O)N(C)c2ccc3scnc3c2)c2ccccc21)c1ccc2scnc2c1 [Example 119] | 10 | ≥ 100 | –
